Patent US6130053A, “Method for selecting compounds for inhibition of neoplastic lesions” (priority 1999, dated 2000)
“Also recorded” adds a separate entry of the source.

Legend:
HT-29 cells = assay: Growth inhibition of HT-29 cells; assay type: cell-based, human; details: HT-29
PKG in SW480 cells = assay: PKG expression by Western blot in SW480 cells; assay type: cell-based, human; details: 48 hours
Method: This increase in PKG protein expression was further verified by relatively quantative western blot, as described below.
SW480 cells treated with exisulind as described previously are harvested from the microfuge tubes by rinsing once with ice-cold PBS. The cells are lysed by modified RIPA buffer for 15 minutes with agitation. The cell lysate is spun down in a cold room. The supernatants are transferred to fresh microcentrifuge tubes immediately after spinning. BioRad DC Protein Assay (Temecula, Calif.) is performed to determine the protein concentrations in samples. The samples are normalized for protein concentration, as described above.
50 μg of each sample is loaded to 10% SDS gel. SDS-PAGE is performed, and the proteins then are transferred to a nitrocellulose membrane. The blotted nitrocellulose membrane are blocked in freshly prepared TBST containing 5% nonfat dry milk for one hour at room temperature with constant agitation.
A goat-anti-PKG primary antibody is diluted to the recommended concentration/dilution in fresh TBST/5% nonfat dry milk. The nitrocellulose membrane is placed in the primary antibody solution and incubated one hour at room temperature with agitation. The nitrocellulose membrane is washed three times for ten minutes each with TBST. […]

cGMP PDE = cGMP PDE inhibition assay, enzyme purified from HT-29 cultured tumor cells; assay type: biochemical, human
Method: The mixture is incubated at 30° C. for 10 minutes with isolated PDE of this invention. Reactions are terminated, for example, by boiling the reaction mixture for 75 seconds. After cooling on ice, 100 μl of 0.5 mg/ml snake venom (O. Hannah venom available from Sigma) is added and incubated for 10 minutes at 30° C. This reaction is then terminated by the addition of an alcohol, e.g. 1 ml of 100% methanol. Assay samples are applied to 1 ml Dowex 1-X8 column; and washed with 1 ml of 100% methanol. The amount of radioactivity in the breakthrough and the wash from the column is combined and measured with a scintillation counter. The degree of phosphodiesterase inhibition is determined by calculating the amount of radioactivity in drug-treated reactions and comparing against a control sample (a reaction mixture lacking the tested compound but with drug solvent).

[1] = tested on: colon, breast, lung, prostate, kidney, and melanoma neoplasias; details: cited from earlier work
[2] = tested on: polyp formation in adenomatous polyposis coli patients; assay: Human clinical study in APC patients, polyp formation; assay type: in vivo
Method: A human clinical study was performed in APC patients, selecting exisulind in each instance. In that study, each patient had already had his/her colon removed, except for a small section of colon adjacent the rectum (where the small intestine was attached) to preserve rectal function. However, such a patient commonly forms polyps in the small remaining colonic section, which polyps require periodic removal (e.g., by electrocautery).
That trial where exisulind was selected was a prevention trial designed to compare the cumulative number of new polyps formed over twelve months by the drug and placebo groups. Eligible patients were those who form between 9 and 44 polyps per year. Patients were fully ablated (had all polyps removed) at the start of the study, at the end of 6 months and at the end of 12 months. The study enrolled thirty-four eligible patients. […] Based on the median number of polyps produced in the first six months of the study, patients treated with exisulind developed approximately one-third the number of polyps as patients treated with placebo (median values 9 polyps/year and 26 polyps/year, respectively; p=0.013). Based on the median number of polyps produced over the entire 12 months of the study, patients treated with exisulind produced approximately half the number of polyps as patients treated with placebo (median values 18 polyps/year and 38 polyps/year, respectively; p=0.020).

[3] = tested on: PSA (prostate specific antigen) level; assay: Human clinical trial post-prostatectomy, PSA level; assay type: in vivo
Method: A separate clinical trial was also performed on male patients who had prostate cancer, and as a result had their prostates removed. The study was conducted in patients with detectable PSA (prostate specific antigen) levels that were rising following radical prostatectomy, indicating recurrence of prostate cancer.
96 patients were enrolled in the prostate study: a double-blind, placebo-controlled, multi-center trial involving exisulind administered to the drug-receiving patients at 500 mg/day. […] Although a rising level of PSA is not itself a disease condition, it is widely regarded in the medical community as a surrogate marker indicative of the presence of recurrence of prostate cancer in such men.
In addition to performing an analysis based on the differences in mean PSA levels between the exisulind and placebo groups as a whole, the interim analysis included subgroup analysis. The patients in the study were classified into high, intermediate and low risk groups in terms of their risk of developing metastatic disease. This classification was performed by a researcher at Johns Hopkins University, using the methodology published by them and other Johns Hopkins' researchers in the Journal of the American Medical Association (JAMA May 5, 1999, pp. 1591-97). To ascertain which study patients fell into which risk group, medical histories were supplied to the researcher who was blinded as to whether patients were on drug or placebo; they assigned study patients to the appropriate risk groups according to the above referenced published methodology.

[4] = tested on: PKG activity in HCT116 cells; assay: PKG activity in HCT116 cells; assay type: cell-based
Description: To test the effect of cGMP-specific PDE inhibition on neoplasia containing the β-catenin mutation, HCT116 colon cancer cells were employed. HCT116 is known to contain the β-catenin mutation, but is known not to contain the APC mutation.
The same procedure is used to grow the HCT116 cells as is used in the SW480 procedure described above. In this experiment, only exisulind and controls were used.

CC1=C(CC(=O)O)c2cc(F)ccc2/C1=C\c1ccc(S(C)(=O)=O)cc1 [Exisulind, 5-fluoro-2-methyl-1-(p-methylsulfonylbenzylidene)-3-indenylacetic acid]
tumor cell growth inhibition (HT-29 cells): capable of inhibiting tumor cell growth | PKG level by Western blot (PKG in SW480 cells): increase of PKG | selectivity cGMP PDE over PDE4 (cGMP PDE): selectivity for the cGMP PDE isoenzyme forms over PDE4 isoforms | reported anti-neoplastic effects [1]: anti-neoplastic effects on colon, breast, lung, prostate, kidney, and melanoma neoplasias | number of polyps relative to placebo, 12 months ([2]; entire 12 months): approximately half | median number of polyps, 12 months ([2]; entire 12 months, placebo 38 polyps/year): 18 polyps/year | number of polyps relative to placebo, first six months ([2]; first six months): approximately one-third | median number of polyps, first six months ([2]; first six months, placebo 26 polyps/year): 9 polyps/year | decrease of rate of polyp formation ([2]; vs placebo): clinically and statistically significantly better than placebo in decreasing the rate of polyp formation | PSA levels vs placebo ([3]; 500 mg/day): significantly reduced as compared with the PSA levels of the placebo-treated group; also recorded: statistically significant differences in mean PSA levels between exisulind and placebo patients in both high and intermediate risk groups | Mean PSA level, High Risk ([3]; 500 mg/day, High Risk, placebo 4.98): 2.91 | Mean PSA level, Intermediate Risk ([3]; 500 mg/day, Intermediate Risk, placebo 6.24): 2.95 | Mean PSA level, Overall ([3]; 500 mg/day, Overall, placebo 4.49): 2.85 | "p" value, mean PSA, High Risk ([3]; vs placebo, High Risk): 0.0002 | "p" value, mean PSA, Intermediate Risk ([3]; vs placebo, Intermediate Risk): 0.0053 | "p" value, mean PSA, Overall ([3]; vs placebo, Overall): 0.0004 | PKG activity relative to control [4]: phosphorylated to a greater extent than the corresponding controls
